From US20250107513A1, “METHOD FOR COUNTING EMBRYOS DEVELOPING IN A UTERUS OF CAENORHABDITIS ELEGANS” (Shanghai University, priority 2022, published 2025)

Tested on: Caenorhabditis elegans
Assay: counting embryos developing in the uterus of Caenorhabditis elegans after TPHP exposure
Type: in vivo
Conditions: then cultured until pregnancy, relative to the control group, p<0.01
Method: As shown in a flowchart (FIG. 1) of a method in the present invention, this embodiment provides a method for counting embryos developing in a uterus of Caenorhabditis elegans exposed to a chemical of triphenyl phosphate (TPHP) for 72 hours, specifically including the following steps:
Step 5: Subject Caenorhabditis elegans to synchronization treatment. Nematode eggs are added dropwise to the NGM medium containing no E. coli, the nematode eggs are cultured at 20° C. for 16 to 20 hours under dark conditions, where Caenorhabditis elegans are in the L1 stage, and Caenorhabditis elegans at the stage are rinsed into a 1.5 mL centrifuge tube with the K solution 3 times.
Step 6: Prepare exposure solutions. 0.1000 g of TPHP solid is weighed accurately, the TPHP solid is dissolved in dimethyl sulfoxide until a concentration reaches 10 g/L, and then TPHP solutions are diluted with dimethyl sulfoxide again until concentrations reach 10 mg/L, 100 mg/L, 1000 mg/L and 5000 mg/L to be used as mother liquors later. Dimethyl sulfoxide is used as the mother liquor of the blank control group. The mother liquors are further diluted by 100 folds with the K solution and then diluting the diluted mother liquors by 100 folds with a K+ solution to finally obtain exposure solutions of Caenorhabditis elegans containing 0 μg/L (control group), 1 μg/L, 10 μg/L, 100 μg/L and 500 μg/L TPHP.
Step 7: Expose Caenorhabditis elegans to a TPHP solution. A prepared TPHP exposure solution is added to a sterile 6-well plate with 5 mL of prepared TPHP exposure solution per well. Caenorhabditis elegans at the L1 stage are then evenly added to the 6-well plate after the synchronization treatment, Caenorhabditis elegans are fed with 100 μg/L E. coli daily, and Caenorhabditis elegans are cultured for 72 hours.
Step 8: Select Caenorhabditis elegans at an exposure stage. The method in the present invention is applicable to pregnant Caenorhabditis elegans, and this is because Caenorhabditis elegans are […] after being exposed to TPHP for 72 hours. […]
Step 11: Count embryos in the uterus of Caenorhabditis elegans. The 24-well plate containing transparent Caenorhabditis elegans is put under an optical stereomicroscope, and exposed embryos of each Caenorhabditis elegans are counted, where exposed embryos of at least 25 nematodes are counted in each treatment group.
Step 12: Analyze data. Data is analyzed by using SPSS software, a confidence interval of samples is set to 95%, and an intra-group mean and mean error of the numbers of embryos developing in nematodes in different treatment groups are calculated, where the data can be selectively in a format of a mean percentage or multiple based on requirements of the experiment. […]

For `O=P(Oc1ccccc1)(Oc1ccccc1)Oc1ccccc1` [TPHP, triphenyl phosphate], the “decrease in the numbers of embryos in the uteri” value (from here on “decrease in the numbers”) (exposure to 1 μg/L TPHP from L1 stage for 72 hours) was 14.2%, the “decrease in the numbers” value (exposure to 10 μg/L TPHP from L1 stage for 72 hours) was 18.2% and the “decrease in the numbers” value (exposure to 100 μg/L TPHP from L1 stage for 72 hours) was 18.1%. For the same compound, the “decrease in the numbers” value (exposure to 500 μg/L TPHP from L1 stage for 72 hours) was 21.8%.
